Experimental data as given in patent publication US9834558B2, “Substituted bridged urea analogs as sirtuin modulators” (GLAXOSMITHKLINE LLC, priority 2013, dated 2017).
Where two headings read alike, the source gives them in different places. Each block holds one compound with its values, some of them ahead of it.

Biological target: T1, SIRT1 (Homo sapiens, UniProt Q96EB6)
T1 sequence (Q96EB6 1-747): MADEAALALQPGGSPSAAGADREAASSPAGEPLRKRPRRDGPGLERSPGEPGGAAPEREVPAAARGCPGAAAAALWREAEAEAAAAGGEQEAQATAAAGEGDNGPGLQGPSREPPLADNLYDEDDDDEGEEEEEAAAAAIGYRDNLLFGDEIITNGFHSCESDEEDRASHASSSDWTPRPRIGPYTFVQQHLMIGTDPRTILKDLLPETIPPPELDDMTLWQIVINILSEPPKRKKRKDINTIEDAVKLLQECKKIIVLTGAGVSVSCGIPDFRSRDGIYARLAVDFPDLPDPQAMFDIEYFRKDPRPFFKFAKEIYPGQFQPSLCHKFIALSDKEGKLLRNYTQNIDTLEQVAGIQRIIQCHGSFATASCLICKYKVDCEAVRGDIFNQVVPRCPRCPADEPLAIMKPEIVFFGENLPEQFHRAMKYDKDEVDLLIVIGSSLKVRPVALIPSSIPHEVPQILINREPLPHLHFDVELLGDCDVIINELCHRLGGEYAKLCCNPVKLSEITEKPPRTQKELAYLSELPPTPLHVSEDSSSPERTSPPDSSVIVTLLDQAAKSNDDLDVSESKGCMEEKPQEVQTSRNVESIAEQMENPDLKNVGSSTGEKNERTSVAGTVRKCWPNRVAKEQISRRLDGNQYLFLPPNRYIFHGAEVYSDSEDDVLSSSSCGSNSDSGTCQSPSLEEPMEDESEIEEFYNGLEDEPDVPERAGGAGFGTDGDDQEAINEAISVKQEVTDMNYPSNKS
Test: Trp mass spectrometry assay of SIRT1 activation
Format: biochemical
Details: for TRP Activity (EC1.5): EC1.5 = concentration that results in 150% activation of SIRT1
Method in brief: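 Activation read-out: mass-spec measurement of O-acetyl-ADP-ribose or deacetylated Trp peptide versus compound-free controls, giving EC1.5 and Percent Maximum Activation. Reactions ran 25 min at 25 °C, pH 7.5, with 120 μM βNAD+, 0.5 μM acetylated p53-derived peptide and 10 nM His-tagged SIRT1.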

[1] = Trp mass spectrometry assay, EC1.5 = concentration of test compound that results in 150% activation of SIRT1
[2] = Trp peptide assay, maximum activity relative to control (100%), read-out: TRP MAX RESP (percent maximum fold activation)
[3] = concentration giving 150% activation of SIRT1, Trp peptide substrate
[4] = Trp mass spectrometry assay, concentration of test compound giving 150% activation of SIRT1

SMILES: O=C(Nc1cccnc1)N1c2nc(-c3cncc(Cl)c3)ccc2N2CCC1CC2 [Example 544]
Tryp AVG EC1.5 (μM) [1]: B (B (EC1.5 1-25 μM))

SMILES: Cc1cc(-c2ccc3c(n2)N(C(=O)Nc2cnccn2)[C@H]2CCN3C2)c(F)cn1 [(9S)-5-(5-fluoro-2-methylpyridin-4-yl)-N-(pyrazin-2-yl)-1,6,8-triazatricyclo[7.2.1.0 {2,7}]dodeca-2(7),3,5-triene-8-carboxamide]
TRP Activity (EC1.5) (Trp peptide assay): B (B (EC1.5 1-25 μM))
Emax [2]: > 150%

SMILES: COc1cc(NC(=O)N2c3nc(-c4ccnc(N5CCC(F)(F)C5)c4)ccc3N3CC[C@H]2C3)ncn1 [Example 390]
Tryp AVG EC1.5 (μM) [4]: B (B (EC1.5 1-25 μM))

SMILES: O=C(Nc1ccccn1)N1c2nc(-c3cc(F)cc(F)c3)ccc2N2CC[C@H]1C2 [Example 344]
Tryp AVG EC1.5 (μM) [4]: A (A (EC1.5<1 μM))

SMILES: O=C(Nc1cccc(-c2cnco2)n1)N1c2nc(-c3cccc(Cl)c3)ccc2N2C[C@@H](O)[C@H]1C2 [Example 693]
Tryp AVG EC1.5 (μM) [3]: A (A (EC1.5<1 μM))

SMILES: Cc1cc(-c2ccc3c(n2)N(C(=O)Nc2cnccn2)[C@H]2CCN3C2)[nH]n1 [(9S)-5-(3-methyl-1H-pyrazol-5-yl)-N-(pyrazin-2-yl)-1,6,8-triazatricyclo[7.2.1.0^{2,7}]dodeca-2(7),3,5-triene-8-carboxamide]
TRP Activity (EC1.5) (Trp peptide assay): B (B (EC1.5 1-25 μM))
Emax [2]: > 150%

SMILES: O=C(CCCCCNC(=O)c1ccc2c(c1)C(=O)OC21c2ccc(O)cc2Oc2cc(O)ccc21)NCc1ncc(-c2cccc(NC(=O)N3c4nc(-c5cccc(C(F)(F)F)c5)ccc4N4CC[C@H]3C4)c2)o1 [Example 708]
Tryp AVG EC1.5 (μM) [3]: A (A (EC1.5<1 μM))

SMILES: O=C(Nc1ccccn1)N1c2nc(N3CCC[C@H](C(F)(F)F)C3)ccc2N2CCC[C@H]1C2 [drawing 1118, (9S)-N-(pyridin-2-yl)-5-[(3S)-3-(trifluoromethyl)piperidin-1-yl]-1,6,8-triazatricyclo[7.3.1.0 {2,7}]trideca-2(7),3,5-triene-8-carboxamide]
TRP Activity (EC1.5) (Trp peptide assay): A (A (EC1.5<1 μM))
TRP MAX RESP (percent maximum fold activation) (Trp peptide assay, maximum activity relative to control (100%)): A (A (Fold activation ≧150%))

SMILES: O=C(Nc1cnccn1)N1c2nc(-c3ccc(C4CC4)nc3)ccc2N2CC[C@H]1C2 [(9S)-5-(6-cyclopropylpyridin-3-yl)-N-(pyrazin-2-yl)-1,6,8-triazatricyclo[7.2.1.0 {2,7}]dodeca-2(7),3,5-triene-8-carboxamide]
TRP Activity (EC1.5) (Trp peptide assay): B (B (EC1.5 1-25 μM))
Emax [2]: > 150%

SMILES: O=C(Nc1cccnc1)N1c2nc(N3CCC[C@H](C(F)(F)F)C3)ccc2N2CCC[C@H]1C2 [(9S)-N-(pyridin-3-yl)-5-[(3S)-3-(trifluoromethyl)piperidin-1-yl]-1,6,8-triazatricyclo[7.3.1.0 {2,7}]trideca-2(7),3,5-triene-8-carboxamide]
TRP Activity (EC1.5) (Trp peptide assay): A (A (EC1.5<1 μM))
Emax [2]: > 150%

SMILES: O=C(Nc1ccccc1CCC(F)(F)F)N1c2nc(Cl)ccc2N2CC[C@H]1C2 [(9S)-5-chloro-N-[2-(3,3,3-trifluoropropyl)phenyl]-1,6,8-triazatricyclo[7.2.1.0 {2,7}]dodeca-2(7),3,5-triene-8-carboxamide]
TRP Activity (EC1.5) (Trp peptide assay): B (B (EC1.5 1-25 μM))
Emax [2]: > 150%

SMILES: COCC(C)NC(=O)c1ccc2c(n1)N(C(=O)Nc1ccccn1)[C@H]1CCN2C1 (stereo partly drawn) [(9S)-5-N-(1-methoxypropan-2-yl)-8-N-(pyridin-2-yl)-1,6,8-triazatricyclo[7.2.1.0^{2,7}]dodeca-2(7),3,5-triene-5,8-dicarboxamide]
TRP Activity (EC1.5) (Trp peptide assay): B (B (EC1.5 1-25 μM))
Emax [2]: > 150%

SMILES: N#Cc1cc(-c2ccc3c(n2)N(C(=O)Nc2cnccn2)[C@H]2CCN3C2)ccc1F [Example 419]
Tryp AVG EC1.5 (μM) [1]: A (A (EC1.5<1 μM))

SMILES: Cc1nc(NC(=O)N2c3nc(-c4cccc(Cl)c4)ccc3N3C[C@@H](O)[C@H]2C3)sc1C [Example 688]
Tryp AVG EC1.5 (μM) [3]: B (B (EC1.5 1-25 μM))

SMILES: O=C(Nc1ccccn1)N1c2nc(-c3ccnc(N4CC[C@H](F)C4)c3)ccc2N2CC[C@H]1C2 [Example 422]
Tryp AVG EC1.5 (μM) [1]: A (A (EC1.5<1 μM))
Emax (Trp mass spectrometry assay, percent maximum fold activation of SIRT1, read-out: Tryp % Fold Act): > 150%

SMILES: O=C(NC1CCOCC1)c1ccc2c(n1)N(C(=O)Nc1ccccn1)[C@H]1CCN2C1 [(9S)-5-N-(oxan-4-yl)-8-N-(pyridin-2-yl)-1,6,8-triazatricyclo[7.2.1.0 {2,7}]dodeca-2(7),3,5-triene-5,8-dicarboxamide]
TRP Activity (EC1.5) (Trp peptide assay): B (B (EC1.5 1-25 μM))
Emax [2]: > 150%

SMILES: COc1cc(NC(=O)N2c3nc(-c4cncc(Cl)c4)ccc3N3CCC[C@H]2C3)ncn1 [Example 405]
Tryp AVG EC1.5 (μM) [4]: A (A (EC1.5<1 μM))

SMILES: CN1CCN(c2ccc3c(n2)N(C(=O)Nc2cnccn2)[C@H]2CCN3C2)CC1 [(9S)-5-(4-methylpiperazin-1-yl)-N-(pyrazin-2-yl)-1,6,8-triazatricyclo[7.2.1.0 {2,7}]dodeca-2(7),3,5-triene-8-carboxamide]
TRP Activity (EC1.5) (Trp peptide assay): B (B (EC1.5 1-25 μM))
Emax [2]: > 150%

SMILES: CS(=O)(=O)c1cncc(-c2ccc3c(n2)N(C(=O)Nc2cncc(F)c2)[C@H]2CCCN3C2)c1 [Example 377]
Tryp AVG EC1.5 (μM) [4]: A (A (EC1.5<1 μM))

SMILES: O=C(Nc1cnccn1)N1c2nc(N3CCNCC3)ccc2N2CC[C@H]1C2 [(9S)-5-(piperazin-1-yl)-N-(pyrazin-2-yl)-1,6,8-triazatricyclo[7.2.1.0 {2,7}]dodeca-2,4,6-triene-8-carboxamide]
TRP Activity (EC1.5) (Trp peptide assay): C (C (EC1.5>25 μM))
Emax [2]: < 150%

SMILES: COc1ccc(-c2ccc3c(n2)N(C(=O)Nc2cnccn2)[C@H]2CCN3C2)cn1 [Example 399]
Tryp AVG EC1.5 (μM) [4]: B (B (EC1.5 1-25 μM))

SMILES: O=C(Nc1ccncn1)N1c2nc(-c3cncc(Cl)c3)ccc2N2CCC1CC2 [Example 576]
Tryp AVG EC1.5 (μM) [1]: B (B (EC1.5 1-25 μM))

SMILES: CS(=O)(=O)c1cccc(-c2ccc3c(n2)N(C(=O)Nc2cccc(-c4cnco4)c2)[C@H]2CCN3C2)c1 [Example 710]
Tryp AVG EC1.5 (μM) [3]: A (A (EC1.5<1 μM))

SMILES: Cc1ccc(-c2ccc3c(n2)N(C(=O)Nc2cncc(F)c2)[C@H]2CCCN3C2)cn1 [Example 477]
Tryp AVG EC1.5 (μM) [1]: B (B (EC1.5 1-25 μM))

SMILES: Cc1ccc(-c2ccc3c(n2)N(C(=O)NC2CCCOC2)[C@H]2CCN3C2)cn1 (stereo partly drawn) [(9S)-5-(6-methylpyridin-3-yl)-N-(oxan-3-yl)-1,6,8-triazatricyclo[7.2.1.0^{2,7}]dodeca-2(7),3,5-triene-8-carboxamide]
TRP Activity (EC1.5) (Trp peptide assay): C (C (EC1.5>25 μM))
Emax [2]: < 150%

Now from value to compound:

Tryp AVG EC1.5 (μM) [3]: B (B (EC1.5 1-25 μM))
SMILES: O=C(Nc1ccc(N2CCCCC2)cc1)N1c2nc(-c3cccc(C(F)(F)F)c3)ccc2N2CC[C@H]1C2 [Example 628]

Tryp AVG EC1.5 (μM) [3]: C (C (EC1.5>25 μM))
SMILES: O=C(NCCn1ccnc1)N1c2nc(-c3cccc(C(F)(F)F)c3)ccc2N2CC[C@H]1C2 [Example 661]

Tryp AVG EC1.5 (μM) [4]: A (A (EC1.5<1 μM))
SMILES: O=C(Nc1ccccn1)N1c2nc(-c3cncc(C(F)(F)F)c3)ccc2N2CCC[C@H]1C2 [Example 369]

Tryp AVG EC1.5 (μM) (Trp peptide substrate, concentration giving 150% activation of SIRT1): A (A (EC1.5<1 μM))
SMILES: O=C(Nc1cccc2nccnc12)N1c2nc(-c3cccc(C(F)(F)F)c3)ccc2N2CC[C@H]1C2 [Example 83]

Tryp AVG EC1.5 (μM) [1]: A (A (EC1.5<1 μM))
SMILES: O=C(Nc1ccccn1)N1c2nc(-c3cccc(C(F)(F)F)c3)ccc2N2C[C@@H](O)[C@H]1C2 [Example 601]

TRP Activity (EC1.5) (Trp peptide assay): B (B (EC1.5 1-25 μM))
Emax [2]: > 150%
SMILES: Cc1cc(-c2ccc3c(n2)N(C(=O)Nc2ccn(C)n2)[C@H]2CCN3C2)ccn1 [(9S)-N-(1-methyl-1H-pyrazol-3-yl)-5-(2-methylpyridin-4-yl)-1,6,8-triazatricyclo[7.2.1.0 {2,7}]dodeca-2,4,6-triene-8-carboxamide]

Tryp AVG EC1.5 (μM) [3]: A (A (EC1.5<1 μM))
SMILES: O=C(Nc1cccnc1)N1c2nc(-c3cccc(C(F)(F)F)c3)ccc2N2C[C@@H](O)[C@H]1C2 [Example 663]

Tryp AVG EC1.5 (μM) [4]: B (B (EC1.5 1-25 μM))
SMILES: O=C(Nc1ccncn1)N1c2nc(-c3cccc(C(F)(F)F)n3)ccc2N2CC[C@H]1C2 [Example 337]

Tryp AVG EC1.5 (μM) [4]: A (A (EC1.5<1 μM))
SMILES: O=C(Nc1cncc(F)c1)N1c2nc(-c3cncc(C(F)(F)F)c3)ccc2N2CCC[C@H]1C2 [Example 411]

Tryp AVG EC1.5 (μM) [3]: A (A (EC1.5<1 μM))
SMILES: Cc1cncc(NC(=O)N2c3nc(-c4cccc(C(F)(F)F)c4)ccc3N3C[C@@H](O)[C@H]2C3)c1 [Example 670]

Tryp AVG EC1.5 (μM) [4]: B (B (EC1.5 1-25 μM))
SMILES: Cn1cc(-c2ccc3c(n2)N(C(=O)Nc2cccnc2)[C@H]2CCN3C2)cn1 [Example 395]

Tryp AVG EC1.5 (μM) [1]: A (A (EC1.5<1 μM))
SMILES: O=C(Nc1cccc(-n2cncn2)c1)N1c2nc(-c3cccc(C(F)(F)F)c3)ccc2N2CC[C@H]1C2 [Example 581]
